Source: patent US8129371B2, “Thienopyrimidine and pyrazolopyrimidine compounds and their use as mTOR kinase and PI3 kinase inhibitors” (Wyeth LLC, priority 2007, dated 2012)
Read-outs that look alike come from different tables or passages of the source.

Key:
Human mTOR (FLAG-TOR) = target: T1, Human mTOR (FLAG-TOR) (Homo sapiens, UniProt P42345); assay: Human mTOR kinase assay with purified enzyme, DELFIA format; type: biochemical
T1 construct: FLAG
Method in brief: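 Purified FLAG-mTOR in HEPES pH 7.4 buffer with 10 mM MnCl2 was preincubated with inhibitor and reacted 2 h at room temperature with His6-S6K substrate, then stopped with EDTA/EGTA. Phospho-T389 S6K detected by DELFIA with Eu-labelled antibody (40 ng/mL) after plate capture; inhibition computed from signal.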

PI3K [1] = target: T2, PI3K (Homo sapiens, UniProt P42336); assay: Fluorescence polarization assay for PI3K; type: biochemical; details: read-out: PI3 Kinase α IC50
T2 construct: PI3 Kinase α IC50; other: PI3 Kinase α; other: PI3 Kinase α isoform, fluorescence polarization
Method in brief: (§1)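 PI3K was preincubated with compound (final DMSO 1%), and the reaction was started with PIP2/ATP substrate and run 30–60 min. It was stopped with a detector mix giving 10 nM red probe and 70 nM GST-GRP.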

PI3K [2] = target: T3, PI3K (Homo sapiens, UniProt P48736); assay: Fluorescence polarization assay for PI3K; type: biochemical; details: read-out: PI3 Kinase γ IC50
T3 construct: PI3 Kinase γ IC50; other: PI3 Kinase γ; other: PI3 Kinase γ isoform, fluorescence polarization
Method in brief: as §1

prostate line LNCap = assay: In vitro cell culture growth assay (MTS), LNCap; type: cell-based; details: Homo sapiens, LNCaP, 72 h, LNCap cells, three days after drug treatment
Method in brief: (§2)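 Plate cells; add inhibitors on day 1; after 3 days' treatment, add MTS; read A490; express as percent growth of vehicle-treated control.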

breast line MDA468 = assay: In vitro cell culture growth assay (MTS), MDA468; type: cell-based; details: Homo sapiens, 72 h, MDA468 cells, three days after drug treatment
Method in brief: as §2

[3] = purified human mTOR enzyme, DELFIA format
[4] = PI3 Kinase α isoform, fluorescence polarization
[5] = PI3 Kinase γ isoform, fluorescence polarization

T2 sequence (P42336 whole entry, canonical isoform): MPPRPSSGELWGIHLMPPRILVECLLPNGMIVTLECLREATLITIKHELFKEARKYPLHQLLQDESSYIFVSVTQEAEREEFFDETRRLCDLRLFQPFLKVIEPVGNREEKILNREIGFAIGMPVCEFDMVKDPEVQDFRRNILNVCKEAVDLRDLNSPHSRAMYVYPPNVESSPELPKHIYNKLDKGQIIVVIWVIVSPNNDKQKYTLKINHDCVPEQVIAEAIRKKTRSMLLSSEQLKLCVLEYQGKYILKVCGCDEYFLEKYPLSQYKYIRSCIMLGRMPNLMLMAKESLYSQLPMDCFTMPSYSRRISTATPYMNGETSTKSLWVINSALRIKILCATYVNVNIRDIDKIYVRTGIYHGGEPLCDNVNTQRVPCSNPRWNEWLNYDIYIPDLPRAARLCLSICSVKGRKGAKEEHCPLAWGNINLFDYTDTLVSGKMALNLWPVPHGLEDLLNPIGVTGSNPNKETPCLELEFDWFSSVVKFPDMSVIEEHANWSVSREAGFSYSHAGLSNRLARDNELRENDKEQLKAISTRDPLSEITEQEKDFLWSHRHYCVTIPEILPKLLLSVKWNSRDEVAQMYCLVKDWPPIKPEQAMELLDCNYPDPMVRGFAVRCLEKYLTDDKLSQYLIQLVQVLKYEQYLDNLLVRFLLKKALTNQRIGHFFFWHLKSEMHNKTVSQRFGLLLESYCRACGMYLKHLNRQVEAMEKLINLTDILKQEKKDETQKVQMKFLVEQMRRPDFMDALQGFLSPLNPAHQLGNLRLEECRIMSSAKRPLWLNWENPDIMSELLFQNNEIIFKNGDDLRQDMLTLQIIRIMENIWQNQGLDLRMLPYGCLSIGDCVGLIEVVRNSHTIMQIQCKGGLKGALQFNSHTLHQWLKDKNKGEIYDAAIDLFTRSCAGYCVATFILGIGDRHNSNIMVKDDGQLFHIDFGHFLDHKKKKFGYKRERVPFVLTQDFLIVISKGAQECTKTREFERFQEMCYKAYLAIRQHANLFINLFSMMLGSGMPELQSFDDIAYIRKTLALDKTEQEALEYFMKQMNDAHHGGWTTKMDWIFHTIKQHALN
T3 sequence (P48736 whole entry, canonical isoform): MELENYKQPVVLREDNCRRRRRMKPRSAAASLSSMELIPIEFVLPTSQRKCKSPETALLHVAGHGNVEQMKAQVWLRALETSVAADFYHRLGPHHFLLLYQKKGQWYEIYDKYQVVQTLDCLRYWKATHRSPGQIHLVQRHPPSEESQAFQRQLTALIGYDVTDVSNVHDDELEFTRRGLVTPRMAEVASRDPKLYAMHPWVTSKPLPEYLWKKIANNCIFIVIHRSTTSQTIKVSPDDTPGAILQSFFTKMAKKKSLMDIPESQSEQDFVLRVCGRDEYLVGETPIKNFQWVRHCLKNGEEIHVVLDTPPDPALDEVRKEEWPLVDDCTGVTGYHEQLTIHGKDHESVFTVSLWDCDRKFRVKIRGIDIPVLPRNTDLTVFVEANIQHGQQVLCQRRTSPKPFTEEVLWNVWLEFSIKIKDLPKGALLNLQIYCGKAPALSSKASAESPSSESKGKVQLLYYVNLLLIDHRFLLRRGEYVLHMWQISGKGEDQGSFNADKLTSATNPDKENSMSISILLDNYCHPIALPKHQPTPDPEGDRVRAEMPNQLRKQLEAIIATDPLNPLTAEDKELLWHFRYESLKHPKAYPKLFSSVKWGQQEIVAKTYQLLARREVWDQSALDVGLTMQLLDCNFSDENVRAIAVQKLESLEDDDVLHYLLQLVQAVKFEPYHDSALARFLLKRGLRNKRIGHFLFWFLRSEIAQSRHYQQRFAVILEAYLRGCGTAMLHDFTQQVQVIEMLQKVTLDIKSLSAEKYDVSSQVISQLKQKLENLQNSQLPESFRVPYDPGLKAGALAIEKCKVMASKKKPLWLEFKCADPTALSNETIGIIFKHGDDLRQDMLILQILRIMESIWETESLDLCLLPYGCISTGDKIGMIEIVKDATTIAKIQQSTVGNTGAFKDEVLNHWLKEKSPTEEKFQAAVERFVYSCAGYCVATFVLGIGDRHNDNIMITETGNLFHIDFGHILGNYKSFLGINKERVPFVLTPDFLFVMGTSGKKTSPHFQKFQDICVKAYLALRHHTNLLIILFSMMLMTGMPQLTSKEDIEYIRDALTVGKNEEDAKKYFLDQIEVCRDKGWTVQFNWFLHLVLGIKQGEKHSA

Row | SMILES | IC50 (Human mTOR (FLAG-TOR); [3]) | IC50 (PI3K [1]; [4]) | IC50 (PI3K [2]; [5]) | IC50 (prostate line LNCap) | IC50 (breast line MDA468) | IC50 (Human mTOR (FLAG-TOR)) | IC50 (PI3K [1]; PI3 Kinase α) | IC50 (PI3K [2]; PI3 Kinase γ)
1 | O=C(Nc1ccc(-c2nc(N3CC4CCC(C3)O4)c3cnn(C4CCC(N5CCCC5)CC4)c3n2)cc1)Nc1cccnc1 (centres unmarked) [Example 332, 1-{4-[4-(8-oxa-3-azabicyclo[3.2.1]oct-3-yl)-1-(4-pyrrolidin-1-ylcyclohexyl)-1H-pyrazolo[3,4-d]pyrimidin-6-yl]phenyl}-3-pyridin-3-ylurea] | 2.45 nM | 351 nM | 2760 nM | 370 nM | 900 nM | – | – | –
2 | CS(=O)(=O)N1CCN(Cc2cc3nc(-c4ccc(NC(=O)Nc5ccncc5)cc4)nc(N4CC5CCC(C4)O5)c3s2)CC1 [Example 434, 1-{4-[6-{[4-(methylsulfonyl)piperazin-1-yl]methyl}-4-(8-oxa-3-azabicyclo[3.2.1]oct-3-yl)thieno[3,2-d]pyrimidin-2-yl]phenyl}-3-pyridin-4-ylurea] | 0.445 nM | 8 nM | 330 nM | 120 nM | 180 nM | – | – | –
3 | Cn1ncc2c(N3CC4CCC(C3)O4)nc(-c3ccc(NC(=O)NC4CC4)cc3)nc21 [Example 53, 1-cyclopropyl-3-{4-[1-methyl-4-(8-oxa-3-azabicyclo[3.2.1]oct-3-yl)-1H-pyrazolo[3,4-d]pyrimidin-6-yl]phenyl}urea] | – | – | – | 72 nM | 800 nM | 1.4 nM | 845 nM | 8820 nM
4 | O=C(Nc1ccc(-c2nc(N3C4CCC3COC4)c3cnn(CC(F)(F)F)c3n2)cc1)Nc1ccc(N2CCOCC2)nc1 [Example 274, 1-(6-morpholin-4-ylpyridin-3-yl)-3-{4-[4-(3-oxa-8-azabicyclo[3.2.1]oct-8-yl)-1-(2,2,2-trifluoroethyl)-1H-pyrazolo[3,4-d]pyrimidin-6-yl]phenyl}urea] | – | – | – | < 1 nM | 20 nM | 0.245 nM | 1210 nM | 7310 nM
5 | O=C(Nc1ccc(-c2nc(N3CC4C[C@@H](O)C(C3)O4)c3cnn(CC(F)(F)F)c3n2)cc1)OCCO (stereo partly drawn) [Example 379, 2-hydroxyethyl (4-{4-[(6R)-6-hydroxy-8-oxa-3-azabicyclo[3.2.1]oct-3-yl]-1-(2,2,2-trifluoroethyl)-1H-pyrazolo[3,4-d]pyrimidin-6-yl}phenyl)carbamate] | 245 nM | > 10000 nM | > 10000 nM | 6800 nM | 5000 nM | – | – | –
6 | CNC(=O)Nc1ccc(-c2nc(N3CC4CCC(C3)O4)c3cnn(C4CCC5(CCCO5)CC4)c3n2)cc1 (single isomer, unassigned) [Example 389, 1-methyl-3-(4-{4-(8-oxa-3-azabicyclo[3.2.1]oct-3-yl)-1-[(5r,8r)-1-oxaspiro[4.5]dec-8-yl]-1H-pyrazolo[3,4-d]pyrimidin-6-yl}phenyl)urea] | 0.285 nM | 909 nM | > 10000 nM | 2 nM | 17 nM | – | – | –
7 | CN1CCN(c2ccc(NC(=O)Nc3ccc(-c4nc(N5CC6CCC(C5)O6)c5cnn(CCC#N)c5n4)cc3)cn2)CC1 [Example 222, 1-{4-[1-(2-cyanoethyl)-4-(8-oxa-3-azabicyclo[3.2.1]oct-3-yl)-1H-pyrazolo[3,4-d]pyrimidin-6-yl]phenyl}-3-[6-(4-methylpiperazin-1-yl)pyridin-3-yl]urea] | – | – | – | 1 nM | 8 nM | 0.405 nM | 143 nM | 2610 nM
8 | CCn1ncc2c(N3CC4CCC(C3)O4)nc(-c3ccc(NC(=O)NCCF)cc3)nc21 [Example 42, 1-{4-[1-ethyl-4-(8-oxa-3-azabicyclo[3.2.1]oct-3-yl)-1H-pyrazolo[3,4-d]pyrimidin-6-yl]phenyl}-3-(2-fluoroethyl)urea] | – | – | – | 31 nM | 120 nM | 0.31 nM | 973 nM | > 10000 nM
9 | CNC(=O)Nc1ccc(-c2nc(N3CC4CCC(C3)O4)c3cnn(Cc4ccccc4)c3n2)cc1 [Example 77, 1-{4-[1-benzyl-4-(8-oxa-3-azabicyclo[3.2.1]oct-3-yl)-1H-pyrazolo[3,4-d]pyrimidin-6-yl]phenyl}-3-methylurea] | – | – | – | 120 nM | 700 nM | 2.2 nM | 2100 nM | > 10000 nM
10 | O=C(Nc1ccc(-c2nc(N3CC4CCC(C3)O4)c3sccc3n2)cc1)NC1CC1 [Example 410, 1-cyclopropyl-3-{4-[4-(8-oxa-3-azabicyclo[3.2.1]oct-3-yl)thieno[3,2-d]pyrimidin-2-yl]phenyl}urea] | 0.71 nM | 1360 nM | ≥ 10000 nM | 40 nM | 780 nM | – | – | –
